Results reported in PubChem BioAssay AID493250 (Broad Institute, 2011).
Activity calls are given as the source filed them.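 Rule for the calls: active = signal decrease with fitted half-maximal dose at or below ten times the highest valid tested dose; inconclusive = poor fit, or flat fit at 30 to 70% inhibition; inactive = the rest.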

target: Zinc finger protein mex-5 (Caenorhabditis elegans) (UniProt Q9XUB2); assay: MEX-5 zinc finger-RNA interaction blockers – biochemical, fluorescence polarization, C. elegans, cherry-picked, round 3, dose response (AID 493250); details: purified MEX-5-MBP, FITC-TCR2 RNA fluorescence polarization
Sequence (Q9XUB2 whole entry, looked up): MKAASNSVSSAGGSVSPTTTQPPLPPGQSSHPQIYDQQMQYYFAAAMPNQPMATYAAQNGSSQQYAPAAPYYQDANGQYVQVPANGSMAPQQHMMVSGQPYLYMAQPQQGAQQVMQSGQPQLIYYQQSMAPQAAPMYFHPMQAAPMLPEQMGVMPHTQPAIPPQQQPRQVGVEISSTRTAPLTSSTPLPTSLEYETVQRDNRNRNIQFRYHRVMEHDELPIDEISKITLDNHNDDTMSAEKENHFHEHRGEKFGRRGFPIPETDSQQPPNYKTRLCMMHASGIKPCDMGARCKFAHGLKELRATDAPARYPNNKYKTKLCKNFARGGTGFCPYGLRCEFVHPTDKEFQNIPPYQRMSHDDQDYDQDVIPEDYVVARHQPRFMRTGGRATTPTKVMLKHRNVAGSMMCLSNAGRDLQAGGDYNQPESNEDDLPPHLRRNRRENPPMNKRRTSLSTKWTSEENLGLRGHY

Structure (SMILES) | AC50
O=[N+]([O-])c1ccccc1NC(=S)N/N=C/c1ccc(O)c(O)c1 | 10.4 µM
CCC(=O)Oc1ccc2c(c1)O/C(=C\c1ccco1)C2=O | 5.51 µM
Cc1ccc2c(c1)c1nc3ccccc3nc1n2C | 6.78 µM
COc1ccc(NS(=O)(=O)c2cccc(C(=O)NNC(=O)c3cc(S(N)(=O)=O)ccc3OC)c2)cc1 | > 10 µM (inactive)
Nc1nc(Cl)nc2ccc(Br)cc12 | > 10 µM (inactive)
CCCC1=NN2C(=N)/C(=C\c3ccc(SCc4ccco4)o3)C(=O)N=C2S1 | 0.98 µM

same assay, conditions: purified MEX-5-MBP, FITC-TCR2 RNA fluorescence polarization; at 10 µM (top of the series)

Structure (SMILES) | activity change, negative = inhibition
COC(=O)C1CSc2[nH]c(=O)sc2C1c1ccc(O)c(OC)c1 (stereo not given) | inactive
NC(=O)C(=O)N/N=C/c1c2ccccc2cc2ccccc12 | inactive
COc1ccc(OC)c(Nc2nc(-c3ccc(O)c(O)c3)cs2)c1 | inactive
COc1ccc(-c2cn[nH]c2-c2ccc(O)cc2O)cc1OC | inactive
O=C(NC1CCSc2ccccc21)c1cccc(Br)c1 (stereo not given) | inactive
Cc1ccc(N2C(=O)c3ccc(C(=O)O)cc3C2=O)cc1C | inactive
CN1CCc2nc3sc(C(=O)NC(C)(C)C)c(N)c3cc2C1 | inactive
CCC(COC(C)=O)Nc1nc2c([nH]1)c(=O)n(C)c(=O)n2C (stereo not given) | inactive
N#C/C(C(N)=O)=C1/CCc2ccccc2N1 | inactive
COc1nc(N/N=C/c2ccc(-c3ccccc3[N+](=O)[O-])o2)nc(N2CCOCC2)n1 | inactive
COc1ccc(CC(=O)NNc2ncnc3c2cnn3C)cc1OC | inactive
CC1=C(C(=O)OCc2ccccc2)C(c2cccc([N+](=O)[O-])c2)NC(=O)N1C (stereo not given) | inactive
O=c1[nH]nc(CNc2ccc(OC(F)(F)F)cc2)c2ccccc12 | inactive
O=C(O)c1ccc2cccnc2c1O | inactive
COC(=O)c1cccc2nc3c(C(C)O)cccc3nc12 (stereo not given) | inactive
COCCNc1nnc(SCC(=O)NNC(=O)c2ccc([N+](=O)[O-])cc2)s1 | inactive
COc1ccc(NCc2n[nH]c(=O)c3ccccc23)cc1 | inactive
Cc1c(NC(=O)c2ccc(=O)oc2)c(=O)n(-c2ccccc2)n1C | inactive
Oc1ccc(/C=N/N2CCOCC2)c(O)c1O | inactive
O=C(NNC(=O)c1ccccc1Cl)c1csc(N2CCOCC2)n1 | inactive
O=C(O)c1ccc(/C=C2\SC(=S)N(Nc3ccccc3)C2=O)cc1 | inactive
Cc1cc(C)c2ccc(=S)[nH]c2n1 | inactive
COc1ccc(NC(=O)c2coc(C)c2)cc1 | inactive

Structure (SMILES) | activity change, negative = inhibition
C=CCn1c(O)c(N=NC(=S)Nc2cccc(C)c2)c2ccccc21 | inactive
Nc1cc(C(=O)O)c(Oc2ccc(Cl)cc2Cl)cc1C(=O)O | inactive
Cc1ccc(Nc2nc(-c3ccc(C)cc3)c(CC(=O)O)s2)cc1 | inactive
CC(C)(C)N(CC#CCC(O)(c1ccccc1)c1ccccc1)CCO | inactive
O=c1oc2cc([N+](=O)[O-])ccc2nc1/C=C(\O)c1cccc(Br)c1 | inactive
COc1cc(/C=C2\CCCc3c2nc2ccccc2c3C(=O)O)cc(OC)c1O | inactive
Cc1ccc(C(=O)NNc2ncnc3c2cnn3C)cc1 | inactive
CCN(CC(=O)Nc1ccc(NC(C)=O)cc1)Cc1c(O)ccc2cc(Br)ccc12 | inactive
CN(C)C(=O)Oc1ccc2c(c1)O/C(=C\c1ccccc1)C2=O | inactive
O=[N+]([O-])c1ccc(-c2cn3nc(-c4ccccc4)c(-c4ccccc4)nc3n2)cc1 | inactive
O=c1cc(-c2ccccc2)oc2ccc(O)cc12 | inactive
COCCN1CCC(CNCc2cn(-c3cc(C)ccc3C)nc2-c2ccccc2)C1 (stereo not given) | inactive
FC(F)(F)c1nc2cc3nc4ccccc4[nH]c3cc2n1 | inactive
Cc1ccc(O)c(-c2cc(C(=O)Nc3ccc(S(=O)(=O)Nc4nc(C)cc(C)n4)cc3)[nH]n2)c1 | inactive
CCCCN(CCCC)CCNC(=O)CNC(=O)c1cccs1 | inactive
O=C(O)c1cccc(NC2=C(Cl)C(=O)c3ccccc3C2=O)c1 | inactive
Cc1ccc(C(=O)N/C(=C\c2ccc(-c3cccc([N+](=O)[O-])c3)o2)C(=O)NCCCN(C)C)cc1 | inactive
COc1cc(/C=N/NC(=O)c2ccc(=O)[nH]n2)ccc1O | inactive
O=c1[nH]cnc2c1C(c1ccccc1[N+](=O)[O-])c1c(nc[nH]c1=O)O2 | inactive
O=[N+]([O-])c1cc(S(=O)(=O)c2ccc(O)c([N+](=O)[O-])c2)ccc1O | inactive
CC(=O)CSc1ncnc2nc[nH]c12 | inactive
COc1cccc(NCc2cc(=O)oc3cc(C)c(C(C)C)cc23)c1 | inactive
O=C(NNC(=O)c1ccccc1[N+](=O)[O-])c1ccco1 | inactive

Structure (SMILES) | activity change, negative = inhibition
Cc1ccc2cc(C#N)c(N3CCCN(C(=O)C4CCCO4)CC3)nc2c1C (stereo not given) | inactive
Cc1c(C#N)c(O)[nH]c(=O)c1N=Nc1ccc(S(N)(=O)=O)cc1 | inactive
Nc1nc(N)c2[nH]cnc2n1 | inactive
O=C1NC(=O)/C(=C/c2ccc(N3CCOCC3)o2)N1 | inactive
CNC(=O)c1c(NC(=O)c2nc3ccccc3s2)sc2c1CCC2 | inactive
Cc1ccc2c(c1)c(C1=NC(=S)NC1=O)c(O)n2C | inactive
O=c1[nH]cnc2c1C(c1ccc(Cl)cc1)c1c(nc[nH]c1=O)O2 | inactive
CC(C#N)(Nc1ccc(Cl)cc1)c1cccnc1 (stereo not given) | inactive
Cc1ccc(-c2nc(C=Nc3cccc(C)c3)c(O)o2)cc1 | inactive
CC(=O)N1C(=O)/C(=C2\SC(=S)N(NC(=O)c3ccc(O)cc3)C2=O)c2ccccc21 | inactive
CC(=O)c1c2c3c(c(Br)ccc3n(C)c1=O)C(=O)c1ccccc1-2 | inactive
O=C(O)CCSc1nc2ccccc2n1Cc1ccccc1 | inactive
CC1CN(Cc2c(O)ccc3c2oc(=O)c2ccccc23)CC(C)O1 (stereo not given) | inactive
CC1(C)NC(=O)NC2(C)NC(=O)NC(C)(C)C12 (stereo not given) | inactive
NC(=O)C(=O)N/N=C1\CCc2ccccc21 | inactive
Cc1cccc(C)c1NC(=O)/C(C#N)=C/c1cccs1 | inactive
O=C(NNC(=O)c1ccc([N+](=O)[O-])o1)c1ccccc1 | inactive
CCOc1ccc(/C=C/C(=O)c2ccccc2)cc1 | inactive
COc1cc(/C=C2/C(C)=C(C#N)c3nc(N)c(C#N)c(C)c32)ccc1OCC(=O)O | inactive
C=CCOc1ccc(C(c2c(C(=O)O)[nH]c3ccccc23)c2c(C(=O)O)[nH]c3ccccc23)cc1 | inactive
CC(=O)N1CCc2c(sc(NC(=O)C3CCCN3S(=O)(=O)c3cccs3)c2C#N)C1 (stereo not given) | inactive
CCOc1ccc2nc(N=Nc3c(O)[nH]c(=O)[nH]c3=O)sc2c1 | inactive
COc1ccc(NC(=S)NNC(=O)C(C)n2nc(C)c([N+](=O)[O-])c2C)cc1 (stereo not given) | inactive

Structure (SMILES) | activity change, negative = inhibition
N=C1C(c2nc3ccccc3[nH]2)=C(O)CN1c1ccc(F)cc1 | inactive
O=C(O)c1ccccc1N=Nc1c(O)[nH]c2ccc([N+](=O)[O-])cc12 | inactive
COc1cc2c(cc1OC)-c1c(OC)c(OC)cc3c1C(C2)N(C)CC3 (stereo not given) | inactive
N#CCCn1c2ccccc2c2nc3ccccc3nc21 | inactive
COC(=O)C1=C(C)OC(N)=C(C#N)C1c1cc(OC)c(OCC(N)=O)cc1Cl (stereo not given) | inactive
O=c1[nH]c2ccccc2n1Cc1ccc(Cl)cc1 | inactive
CN=c1scc(-c2ccco2)n1/N=C/c1ccc(O)c(O)c1 | inactive
CC(=O)NNc1ncnc2ccccc12 | inactive
CCOc1nc(-c2ccccc2)c2cc(Br)ccc2n1 | inactive
O=C(O)c1ccc2c(c1)ncn2C1CCCCC1 | inactive
CN1C(=O)NC(c2ccccc2Cl)C2=C1CC(C)(C)CC2=O (stereo not given) | inactive
Cc1nc2cc(C(=O)O)ccc2n1-c1ccc(F)cc1F | inactive
COc1ccc(-c2cn[nH]c2-c2ccc(OCC(=O)NN)cc2O)cc1 | inactive
Oc1cccc(NC(=S)N=Nc2c(O)[nH]c3ccccc23)c1 | inactive
COC(=O)COc1ccc2c(c1)O/C(=C\c1cccc([N+](=O)[O-])c1)C2=O | inactive
O=C(O)c1ccc2cccnc2n1 | inactive
COc1cc(/C=N/NC(=S)Nc2cccc(C(=O)O)c2)ccc1O | inactive
Oc1c(C=Nc2ccccc2)sc(=S)n1Cc1ccccc1 | inactive
COc1cc(OC)c2ccc(=O)oc2c1C(CC(=O)N1CCCC1)c1ccc(N(C)C)cc1 (stereo not given) | inactive
O=C(NNC(=O)c1ccc(O)c(Cl)c1)c1cccc(S(=O)(=O)N2CCOCC2)c1 | inactive
